The assay deals with PD-1/PD-L1 (Homo sapiens, UniProt Q9NZQ7). Description: TR-FRET PD-1/PD-L1 binding inhibition at the molecular level (free proteins). To be noted: Tag1-PD-L1 and Tag2-PD-1 proteins, twelve concentrations from 200 nM, 2 hours at room temperature, read-out: FRET assay (IC50). Put shortly: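 HTRF read-out at 665/620 nm after 2 h at room temperature. Detection used anti-Tag1 Eu cryptate plus anti-Tag2 XL665 antibodies. Tagged PD-L1 and PD-1 proteins were pre-mixed with compound across twelve […] 1:2 dilutions starting at 200 nM.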
For orientation: In TR-FRET formats the signal depends on donor and acceptor labels being close together.

Sequence of PD-1/PD-L1 (Q9NZQ7 19-238 limits assumed): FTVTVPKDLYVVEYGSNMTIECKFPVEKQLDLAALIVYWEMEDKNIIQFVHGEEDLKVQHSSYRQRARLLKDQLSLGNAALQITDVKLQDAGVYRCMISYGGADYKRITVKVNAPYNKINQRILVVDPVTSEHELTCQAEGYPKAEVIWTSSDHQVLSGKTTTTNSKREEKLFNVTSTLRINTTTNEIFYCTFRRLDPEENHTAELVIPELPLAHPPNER

As to `COc1nc(-c2cccc(-c3cccc(-c4cc5n(n4)CCCC5N4CC[C@@H](O)C4)c3Cl)c2Cl)cnc1CNC[C@@H]1CCC(=O)N1` (stereo partly drawn) [Compound 170, (5S)-5-((((5-(2,2'-dichloro-3'-(4-((R)-3-hydroxypyrrolidin-1-yl)-4,5,6,7-tetrahydropyrazolo[1,5-a]pyridin-2-yl)-[1,1'-biphenyl]-3-yl)-3-methoxypyrazin-2-yl)methyl)amino)methyl)pyrrolidin-2-one], the IC50 (in general, the point on the concentration scale where inhibition reaches its midpoint) was in the range of 10 to 100 nM. As to `Cc1c(Nc2nccc3cc(CN4CC[C@@H](O)C4)cnc23)cccc1-c1cccc(-c2cc3n(n2)CCCC3NCCO)c1C` (stereo partly drawn) [Compound 174, (3R)-1-((8-((3'-(4-((2-hydroxyethyl)amino)-4,5,6,7-tetrahydropyrazolo[1,5-a]pyridin-2-yl)-2,2'-dimethyl-[1,1'-biphenyl]-3-yl)amino)-1,7-naphthyridin-3-yl)methyl)pyrrolidin-3-ol], the IC50 is below 10 nM. Next, `CC(=O)NCCNC1CCCn2nc(-c3cccc(-c4cccc(Nc5nccc6cc(CN7CC[C@@H](O)C7)cnc56)c4C)c3C)cc21` (stereo partly drawn) [Compound 175, N-(2-((2-(3'-((3-(((R)-3-hydroxypyrrolidin-1-yl)methyl)-1,7-naphthyridin-8-yl)amino)-2,2'-dimethyl-[1,1'-biphenyl]-3-yl)-4,5,6,7-tetrahydropyrazolo[1,5-a]pyridin-4-yl)amino)ethyl)acetamide]: below 10 nM; `Cc1c(Nc2nccc3cc(CN4CC[C@@H](O)C4)cnc23)cccc1-c1cccc(-c2cc3n(n2)CCCC3NC[C@@H]2CCC(=O)N2)c1C` (stereo partly drawn) [Compound 176, (5S)-5-(((2-(3'-((3-(((R)-3-hydroxypyrrolidin-1-yl)methyl)-1,7-naphthyridin-8-yl)amino)-2,2'-dimethyl-[1,1'-biphenyl]-3-yl)-4,5,6,7-tetrahydropyrazolo[1,5-a]pyridin-4-yl)amino)methyl)pyrrolidin-2-one]: 10 to 100 nM.

Take `Cc1c(Nc2nccc3cc(CN4CC[C@@H](O)C4)cnc23)cccc1-c1cccc(-c2cc3n(n2)CCCC3N2CC[C@@H](O)C2)c1C` (stereo partly drawn) [Compound 177, (3R)-1-((8-((3'-(4-((R)-3-hydroxypyrrolidin-1-yl)-4,5,6,7-tetrahydropyrazolo[1,5-a]pyridin-2-yl)-2,2'-dimethyl-[1,1'-biphenyl]-3-yl)amino)-1,7-naphthyridin-3-yl)methyl)pyrrolidin-3-ol]: the IC50 was below 10 nM. As to `Cc1c(Nc2nccc3cc(CN4CC[C@@H](O)C4)cnc23)cccc1-c1cccc(-c2cc3n(n2)CCCC3N2CC[C@@H](C(=O)O)C2)c1C` (stereo partly drawn) [Compound 178, (3R)-1-(2-(3'-((3-(((R)-3-hydroxypyrrolidin-1-yl)methyl)-1,7-naphthyridin-8-yl)amino)-2,2'-dimethyl-[1,1'-biphenyl]-3-yl)-4,5,6,7-tetrahydropyrazolo[1,5-a]pyridin-4-yl)pyrrolidine-3-carboxylic acid], the IC50 is below 10 nM. As to `Cc1c(Nc2nccc3cc(CN4CC[C@@H](O)C4)cnc23)cccc1-c1cccc(-c2cc3n(n2)CCCC3NCC(=O)O)c1C` (stereo partly drawn) [Compound 179, 2-((2-(3'-((3-(((R)-3-hydroxypyrrolidin-1-yl)methyl)-1,7-naphthyridin-8-yl)amino)-2,2'-dimethyl-[1,1'-biphenyl]-3-yl)-4,5,6,7-tetrahydropyrazolo[1,5-a]pyridin-4-yl)amino)acetic acid], the IC50 is below 10 nM. For the molecule `OCCNC1CCCn2nc(-c3cccc(-c4cccc(Nc5nccc6cc(CN7CC[C@@H](O)C7)cnc56)c4Cl)c3Cl)cc21` (stereo partly drawn) [Compound 180, (3R)-1-((8-((2,2'-dichloro-3'-(4-((2-hydroxyethyl)amino)-4,5,6,7-tetrahydropyrazolo[1,5-a]pyridin-2-yl)-[1,1'-biphenyl]-3-yl)amino)-1,7-naphthyridin-3-yl)methyl)pyrrolidin-3-ol], the IC50 was below 10 nM. As to `CC(=O)NCCNC1CCCn2nc(-c3cccc(-c4cccc(Nc5nccc6cc(CN7CC[C@@H](O)C7)cnc56)c4Cl)c3Cl)cc21` (stereo partly drawn) [Compound 181, N-(2-((2-(2,2'-dichloro-3'-((3-(((R)-3-hydroxypyrrolidin-1-yl)methyl)-1,7-naphthyridin-8-yl)amino)-[1,1'-biphenyl]-3-yl)-4,5,6,7-tetrahydropyrazolo[1,5-a]pyridin-4-yl)amino)ethyl)acetamide], the IC50 was below 10 nM. Turning to `O=C1CC[C@@H](CNC2CCCn3nc(-c4cccc(-c5cccc(Nc6nccc7cc(CN8CC[C@@H](O)C8)cnc67)c5Cl)c4Cl)cc32)N1` (stereo partly drawn) [Compound 182, (5S)-5-(((2-(2,2'-dichloro-3'-((3-(((R)-3-hydroxypyrrolidin-1-yl)methyl)-1,7-naphthyridin-8-yl)amino)-[1,1'-biphenyl]-3-yl)-4,5,6,7-tetrahydropyrazolo[1,5-a]pyridin-4-yl)amino)methyl)pyrrolidin-2-one], the IC50 was in the range of 10 to 100 nM. Next, `O[C@@H]1CCN(Cc2cnc3c(Nc4cccc(-c5cccc(-c6cc7n(n6)CCCC7N6CC[C@@H](O)C6)c5Cl)c4Cl)nccc3c2)C1` (stereo partly drawn) [Compound 183, (3R)-1-(2-(2,2'-dichloro-3'-((3-(((R)-3-hydroxypyrrolidin-1-yl)methyl)-1,7-naphthyridin-8-yl)amino)-[1,1'-biphenyl]-3-yl)-4,5,6,7-tetrahydropyrazolo[1,5-a]pyridin-4-yl)pyrrolidin-3-ol]: below 10 nM. To `O=C(O)[C@@H]1CCN(C2CCCn3nc(-c4cccc(-c5cccc(Nc6nccc7cc(CN8CC[C@@H](O)C8)cnc67)c5Cl)c4Cl)cc32)C1` (stereo partly drawn) [Compound 184, (3R)-1-(2-(2,2'-dichloro-3'-((3-(((R)-3-hydroxypyrrolidin-1-yl)methyl)-1,7-naphthyridin-8-yl)amino)-[1,1'-biphenyl]-3-yl)-4,5,6,7-tetrahydropyrazolo[1,5-a]pyridin-4-yl)pyrrolidine-3-carboxylic acid] belongs below 10 nM. To `O=C(O)CNC1CCCn2nc(-c3cccc(-c4cccc(Nc5nccc6cc(CN7CC[C@@H](O)C7)cnc56)c4Cl)c3Cl)cc21` (stereo partly drawn) [Compound 185, 2-((2-(2,2'-dichloro-3'-((3-(((R)-3-hydroxypyrrolidin-1-yl)methyl)-1,7-naphthyridin-8-yl)amino)-[1,1'-biphenyl]-3-yl)-4,5,6,7-tetrahydropyrazolo[1,5-a]pyridin-4-yl)amino)acetic acid] belongs below 10 nM; to `COc1cc(-c2cccc(-c3cccc(NC(=O)c4cc5n(n4)CCCC5NCC(=O)O)c3Cl)c2Cl)cc(F)c1CNCCO` (stereo not drawn) [Compound 186, 2-((2-((2,2'-dichloro-3"-fluoro-4"-(((2-hydroxyethyl)amino)methyl)-5"-methoxy-[1,1':3',1"-terphenyl]-3-yl)carbamoyl)-4,5,6,7-tetrahydropyrazolo[1,5-a]pyridin-4-yl)amino)acetic acid], below 10 nM. In the case of `COc1cc(-c2cccc(-c3cccc(NC(=O)c4cc5n(n4)CCCC5NCC(=O)O)c3Cl)c2Cl)cc(F)c1CN1CC[C@@H](O)C1` (stereo partly drawn) [Compound 187, 2-((2-((2,2'-dichloro-3"-fluoro-4"-(((R)-3-hydroxypyrrolidin-1-yl)methyl)-5"-methoxy-[1,1':3',1"-terphenyl]-3-yl)carbamoyl)-4,5,6,7-tetrahydropyrazolo[1,5-a]pyridin-4-yl)amino)acetic acid], the 50% inhibitory concentration (IC50) is below 10 nM.

In the case of `COc1cc(-c2cccc(-c3cccc(NC(=O)c4cc5n(n4)CCCC5NCC(=O)O)c3Cl)c2Cl)cc(F)c1CNC[C@@H]1CCC(=O)N1` (stereo partly drawn) [Compound 188, 2-((2-((2,2'-dichloro-3"-fluoro-5"-methoxy-4"-(((((S)-5-oxopyrrolidin-2-yl)methyl)amino)methyl)-[1,1':3',1"-terphenyl]-3-yl)carbamoyl)-4,5,6,7-tetrahydropyrazolo[1,5-a]pyridin-4-yl)amino)acetic acid], the IC50 is below 10 nM. Next, `COc1cc(-c2cccc(-c3cccc(NC(=O)c4cc5n(n4)CCCC5NCC(=O)O)c3Cl)c2Cl)cc(F)c1CNCCNC(C)=O` (stereo not drawn) [Compound 189, 2-((2-((4"-(((2-acetamidoethyl)amino)methyl)-2,2'-dichloro-3"-fluoro-5"-methoxy-[1,1':3',1"-terphenyl]-3-yl)carbamoyl)-4,5,6,7-tetrahydropyrazolo[1,5-a]pyridin-4-yl)amino)acetic acid]: below 10 nM; `COc1cc(C(=O)Nc2cccc(-c3cccc(NC(=O)c4cc5n(n4)CCCC5NCC(=O)O)c3Cl)c2Cl)cc(F)c1CNCCO` (stereo not drawn) [Compound 190, 2-((2-((2,2'-dichloro-3'-(3-fluoro-4-(((2-hydroxyethyl)amino)methyl)-5-methoxybenzamido)-[1,1'-biphenyl]-3-yl)carbamoyl)-4,5,6,7-tetrahydropyrazolo[1,5-a]pyridin-4-yl)amino)acetic acid]: below 10 nM; `COc1cc(C(=O)Nc2cccc(-c3cccc(NC(=O)c4cc5n(n4)CCCC5NCC(=O)O)c3Cl)c2Cl)cc(F)c1CNCC(=O)O` (stereo not drawn) [Compound 191, 2-((4-((3'-(4-((carboxymethyl)amino)-4,5,6,7-tetrahydropyrazolo[1,5-a]pyridine-2-carboxamido)-2,2'-dichloro-[1,1'-biphenyl]-3-yl)carbamoyl)-2-fluoro-6-methoxybenzyl)amino)acetic acid]: below 10 nM. Consider `COc1cc(C(=O)Nc2cccc(-c3cccc(NC(=O)c4cc5n(n4)CCCC5NCC(=O)O)c3Cl)c2Cl)cc(F)c1CN1CC[C@@H](O)C1` (stereo partly drawn) [Compound 192, 2-((2-((2,2'-dichloro-3'-(3-fluoro-4-(((R)-3-hydroxypyrrolidin-1-yl)methyl)-5-methoxybenzamido)-[1,1'-biphenyl]-3-yl)carbamoyl)-4,5,6,7-tetrahydropyrazolo[1,5-a]pyridin-4-yl)amino)acetic acid], for which the IC50 is below 10 nM. Next, `COc1cc(C(=O)Nc2cccc(-c3cccc(NC(=O)c4cc5n(n4)CCCC5NCC(=O)O)c3Cl)c2Cl)cc(F)c1CN1CC[C@@H](C(=O)O)C1` (stereo partly drawn) [Compound 193, (3R)-1-(4-((3'-(4-((carboxymethyl)amino)-4,5,6,7-tetrahydropyrazolo[1,5-a]pyridine-2-carboxamido)-2,2'-dichloro-[1,1'-biphenyl]-3-yl)carbamoyl)-2-fluoro-6-methoxybenzyl)pyrrolidine-3-carboxylic acid]: below 10 nM.

For the origin of these results see patent EP4755888A1 (ILAb Co., Ltd., priority 2023, dated 2025).
